Converted amounts (≈) assume the structure as drawn. Like-named read-outs stand apart in the source and are kept apart here.
How the values were obtained:
Rat FAAH = Rat FAAH (Rattus norvegicus (Rat), UniProt P97612); experiment: In vitro rat FAAH radiometric assay; type: biochemical; settings: rat brain homogenate, 10 min pre-incubation at 37° C.; read-out: r-FAAH IC50
Protocol: In Vitro Rat FAAH Radiometric Assay
Rat FAAH was prepared from male Sprague Dawley rat brains, homogenized in a potter in 20 mM of Tris HCl pH 7.4, 0.32 M sucrose.
The radiometric assay used to measure FAAH activity was performed in Eppendorf tubes: 50 μg of total rat brain homogenate were pre-incubated in 445.5 μL of assay buffer (50 mM Tris-HCl pH 7.4, 0.05% Fatty acid-free-bovine serum albumin (BSA)) with 4.5 μL of inhibitor (at appropriate concentration in DMSO) or DMSO alone (to measure FAAH total activity) for 10 min at 37° C. The blank (no activity control) was prepared using 445.5 μL of assay buffer and 4.5 μL of DMSO without the 50 μg of total rat brain homogenate.
After 10 min of pre-incubation with test compounds, the reaction was started by adding of 50 μL of substrate and incubating for 30 min at 37° C. The substrate was prepared in assay buffer in order to achieve the final concentration of 1 μM arachidonoyl ethanolamide (Cayman Chemical N. 90050) and 0.6 nM anandamide [ethanolamine-1-^3H] (American Radiolabeled Chemicals Inc, ART. 0626, Conc. 1 mCi/mL, S.A. 60 Ci/mmol). The reaction was stopped by adding cold 1:1 CHCl3/MeOH. After 10 min of centrifugation (845×g at 4° C.) 600 μL of aqueous phase were transferred into scintillation vials previously filled with 3 mL of scintillation fluid (Ultima Gold™, Perkin Elmer Inc., Cat. 6013329). Radioactivity was measured by liquid scintillation counting (MicroBeta2 LumiJET Perkin Elmer Inc.).
(§1) Concentrations causing half-maximal inhibition of FAAH, IC50 values, were determined by non-linear regression analysis of the Log [concentration]/response curves generated with mean replicate values using a four parameter Hill equation curve fitting with GraphPad Prism 5 (GraphPad Software Inc., CA—USA).

human FAAH-1 = human FAAH-1 (Homo sapiens (Human), UniProt O00519); experiment: In vitro human FAAH fluorescent assay; type: biochemical; settings: human FAAH-1 membrane preparation from HEK-293, 50 min pre-incubation at 37° C.; read-out: h-FAAH IC50
Protocol: In Vitro Human FAAH Fluorescent Assay
Human recombinant FAAH was obtained from a HEK-293 cell line stably overexpressing human FAAH-1 enzyme. Cells were grown in Dulbecco's Modified Eagle Medium (DMEM) medium containing 10% FBS, 1% pen/strep, 1% glutamine and 500 μg/mL G418. To obtain membrane preparation cells were scraped off with cold PBS and collected by centrifugation (500×g, 10 min, 4° C.); the cell pellet was re-suspended in 20 mM Tris-HCl pH 7.4, 0.32M sucrose, disrupted by sonication (10 pulses, 5 times) and centrifuged (800×g, 15 min, 4° C.); the collected supernatant was centrifuged at 105,000×g for 1 h at 4° C. and the pellet was re-suspended in PBS.
The fluorescent assay to measure FAAH activity was performed in 96 wells black plates: 2.5 μg of human FAAH-1 membrane preparation were pre-incubated for 50 min at 37° C., in 180 µL of assay buffer (50 mM TrisHCl pH 7.4, 0.05% Fatty acid-free-BSA) with 10 μL of inhibitor (at appropriate concentration in DMSO) or 10 μL DMSO to measure FAAH total activity. The background (no activity) samples were prepared using 180 μL of assay buffer without human FAAH-1 and 10 μL of DMSO. The reaction was then started by the addition of 10 μL of a 40 μM substrate solution (N. 10005098, Cayman Chemical) dissolved in ethanol, and used at a final concentration of 2 μM. The reaction was carried out for 30 min at 37° C. and fluorescence was measured with a Tecan Infinite M200 nanoquant plate reader (excitation wavelength 350 nm/emission wavelength 460 nm).
as §1

[1] = Aqueous kinetic solubility assay; type: physicochemical; settings: phosphate buffered saline, aqueous buffer, kinetic from dmso stock, PBS pH 7.4, target 250 μM, 2.5% DMSO, 25° C.
Protocol: Aqueous Kinetic Solubility Assay
The aqueous kinetic solubility was determined from a 10 mM DMSO stock solution of test compound in Phosphate Buffered Saline (PBS) at pH 7.4.
The study was performed by incubation of an aliquot of 10 mM DMSO stock solution in PBS (pH 7.4) at a target concentration of 250 μM resulting in a final concentration of 2.5% DMSO. The incubation was carried out under shaking at 25° C. for 24 h followed by centrifugation. The supernatant was analyzed by UPLC/MS for the quantification of dissolved compound by UV at a specific wavelength (215 nm).
The aqueous kinetic solubility (in μM) was calculated by dividing the peak area of the supernatant by the peak area of the test compound reference and further multiplied by the concentration of the test compound reference and dilution factor.
The UPLC/MS analyses were performed on a Waters ACQUITY UPLC/MS system consisting of a SQD (Single Quadrupole Detector) Mass Spectrometer equipped with an Electrospray Ionization interface and a Photodiode Array Detector. The PDA range was 210-400 nm. The analyses were run on an ACQUITY UPLC BEH C18 column (50×2.1 mmID, particle size 1.7 m) with a VanGuard BEH C18 pre-column (5×2.1 mmID, particle size 1.7 μm). The mobile phase was 10 mM NH4OAc in H2O at pH 5 adjusted with AcOH (A) and 10 mM NH4OAc in MeCN—H2O (95:5) at pH 5 (B). Electrospray ionization in positive and negative mode was applied in the mass scan range 100-500 Da.

[2] = Pharmacokinetic experiment in cannulated Sprague-Dawley rats (PO and IV); type: in vivo; settings: plasma, rat; for bioavailability: PO 10 mg/kg vs IV 3 mg/kg, read-out: Oral bioavailability (F %)
Protocol: Pharmacokinetic Experiment and Analysis
Compounds were administered orally (PO) and intravenously (IV) to cannulated Sprague-Dawley rats at 10 and 3 mg/kg, respectively. Vehicle was: PEG400/Tween 80/Saline solution at 10/10/80 (% in volume), respectively. Three animals per dose were treated. Blood samples at 0, 15, 30, 60, 120, 240, 480 and 1440 min after administration were collected for PO arm. Blood samples at 0, 5, 15, 30, 60, 120 and 240 min after administration were collected for IV arm. Plasma was separated from blood by centrifugation for 15 min at 3500 rpm a 4° C., collected in a Eppendorf tube and frozen (−80° C.). Control animals treated with vehicle only were also included in the experimental protocol.
Preparation of Samples, Standard Curve and QC Samples for UPLC-MS Analysis
Samples were thawed in an ice bath and after a short centrifugation transferred (50 μL) into a 96-deepwell plate and added with 150 μL of acetonitrile spiked with 200 nM Warfarin (the Internal Standard, I.S.). After agitation (3 min) the plate was centrifuged at 3000 g for 10 min at 4° C. 80 μL of supernatant was then transferred in a 96-well plate and added with 80 μL of water. Standard compound was spiked in neat solvent (PBS pH 7.4 added with 10% acetonitrile) to prepare a calibration curve over the 1 nM-10 μM range. Three quality controls (QCs) samples were also prepared spiking the compound in blank rat plasma to final 20, 200 and 2000 nM concentrations. Calibrators and QCs were crashed with acetonitrile spiked with the I.S. as described for the plasma samples. Dosing solutions, previously diluted 2000 fold in the neat solvent were also included in the samples and tested.
Compounds plasma levels were monitored on a Xevo TQ UPLC-MS/MS system (Waters, Milford USA), using the calibration curve and the internal standard (Warfarin). Chromatography was carried out on a Acquity BEH C18 column (2.1×50 mmID, 1.7 m particle size, Waters, Milford USA). Flow rate was 0.5 mL/min. The mobile phase was (A) H2O/0.1% formic acid; (B) MeCN/0.1% formic acid. A linear gradient was applied from 5 to 100% B in 2 min. 3 μL of each sample were loaded on column. MS parameters and multiple reaction monitoring (MRM) transitions were carefully tuned for each compound. Plasma levels data were analyzed using PKSolutions excel application (Summit Research Service, USA) to derive the most important pharmacokinetic parameters.
The oral bioavailability (F %) data, and the Area Under the Curve (AUC) data (ng×min/mL) corresponding to the IV (3 mg/kg) and PO (10 mg/kg) dose of selected compounds described in the Examples are reported in Table 3. Their F % data are in the range from 35 to 87.

[3] = IV, 3 mg/kg, read-out: AUC IV (3 mg/kg) (converted)
[4] = PO, 10 mg/kg, read-out: AUC PO (10 mg/kg) (converted)

Sequence of human FAAH-1 (O00519 whole entry): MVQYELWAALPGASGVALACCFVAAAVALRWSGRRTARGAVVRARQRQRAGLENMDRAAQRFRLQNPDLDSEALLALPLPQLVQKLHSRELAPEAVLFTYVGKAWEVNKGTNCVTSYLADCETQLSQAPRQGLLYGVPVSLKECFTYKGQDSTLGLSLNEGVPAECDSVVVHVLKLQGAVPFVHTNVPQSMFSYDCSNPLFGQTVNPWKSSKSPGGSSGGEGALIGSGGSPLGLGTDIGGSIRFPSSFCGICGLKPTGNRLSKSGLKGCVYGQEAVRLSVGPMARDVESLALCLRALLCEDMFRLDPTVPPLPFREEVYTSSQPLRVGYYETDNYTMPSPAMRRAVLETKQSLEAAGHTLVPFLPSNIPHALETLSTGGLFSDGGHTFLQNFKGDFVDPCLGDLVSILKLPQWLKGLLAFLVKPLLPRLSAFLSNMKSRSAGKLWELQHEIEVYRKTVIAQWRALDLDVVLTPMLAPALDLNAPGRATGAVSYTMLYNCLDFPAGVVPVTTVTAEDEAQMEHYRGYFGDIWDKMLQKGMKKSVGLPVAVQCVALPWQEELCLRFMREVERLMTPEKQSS
Sequence of Rat FAAH (P97612 whole entry): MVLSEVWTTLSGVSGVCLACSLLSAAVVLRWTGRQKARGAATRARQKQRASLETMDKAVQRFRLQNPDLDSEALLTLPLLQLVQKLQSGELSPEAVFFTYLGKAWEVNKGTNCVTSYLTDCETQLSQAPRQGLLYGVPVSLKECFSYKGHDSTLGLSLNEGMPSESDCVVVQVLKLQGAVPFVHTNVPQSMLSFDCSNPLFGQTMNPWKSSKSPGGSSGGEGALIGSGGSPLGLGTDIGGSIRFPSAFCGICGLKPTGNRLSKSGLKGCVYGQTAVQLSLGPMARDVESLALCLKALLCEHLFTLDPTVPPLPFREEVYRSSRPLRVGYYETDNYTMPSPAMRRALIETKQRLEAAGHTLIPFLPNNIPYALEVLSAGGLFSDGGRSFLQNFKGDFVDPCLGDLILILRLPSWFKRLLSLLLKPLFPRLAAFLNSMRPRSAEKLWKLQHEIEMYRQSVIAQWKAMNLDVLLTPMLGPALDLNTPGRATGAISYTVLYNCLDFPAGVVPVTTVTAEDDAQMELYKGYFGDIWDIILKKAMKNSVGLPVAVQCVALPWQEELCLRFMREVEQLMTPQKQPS

Row | Compound | IC50 (Rat FAAH) [nM] | IC50 (human FAAH-1) [nM] | solubility kinetic at 24 h [1] [µM] | bioavailability [2] [%] | AUC [2, 3] [ng·h/mL] | AUC [2, 4] [ng·h/mL]
1 | CNC(=O)c1cccc(-c2cc(OC(=O)NC3CCCCC3)ccc2F)c1 [Example 1, [4-fluoro-3-[3-(methylcarbamoyl)phenyl]phenyl]N-cyclohexylcarbamate] | 1.4 | 12 | 28 (≈ 10.4 µg/mL) | 87 | 1280 | 3700
2 | NS(=O)(=O)c1cccc(-c2cc(OC(=O)NC3CCCCC3)ccc2F)c1 [Example 2, [4-fluoro-3-(3-sulfamoylphenyl)phenyl] N-cyclohexylcarbamate] | 0.7 | 11 | 28 (≈ 11 µg/mL) | 35 | 746 | 867
3 | NC(=O)c1cccc(-c2cc(OC(=O)NC3CCC3)ccc2F)c1 [Example 3, [3-(3-carbamoylphenyl)-4-fluoro-phenyl] N-cyclobutylcarbamate] | 0.9 | 1.8 | 33 (≈ 10.8 µg/mL) | 79 | 498 | 1310
4 | CNC(=O)c1cccc(-c2cc(OC(=O)NC3CCCC3)ccc2F)c1 [Example 4, [4-fluoro-3-[3-(methylcarbamoyl)phenyl]phenyl] N-cyclopentylcarbamate] | 3.9 | 2.9 | 96 (≈ 34.2 µg/mL) |  |  | 
5 | NC(=O)c1cccc(-c2cc(OC(=O)NC3CCCC3)ccc2F)c1 [Example 5, [3-(3-carbamoylphenyl)-4-fluoro-phenyl] N-cyclopentylcarbamate] | 2.9 | 0.84 |  |  |  | 
6 | CNC(=O)c1cccc(-c2cc(OC(=O)NC3CCC3)ccc2F)c1 [Example 6, [4-fluoro-3-[3-(methylcarbamoyl)phenyl]phenyl] N-cyclobutylcarbamate] | 5.1 | 6.6 | 183 (≈ 62.7 µg/mL) |  |  | 
7 | CS(=O)(=O)c1cccc(-c2cc(OC(=O)NC3CCCCC3)ccc2F)c1 [Example 7, [4-Fluoro-3-(3-methylsulfonylphenyl)phenyl] N-cyclohexylcarbamate] | 8.9 | 4.9 |  |  |  | 
8 | NS(=O)(=O)c1cccc(-c2cc(OC(=O)NC3CCCCC3)ccc2OC(F)F)c1 [Example 10, [4-(difluoromethoxy)-3-(3-sulfamoylphenyl)phenyl] N-cyclohexylcarbamate] | 8.2 | 9.2 |  |  |  | 
9 | CS(=O)(=O)c1cccc(-c2cc(OC(=O)NC3CCCCC3)ccc2OC(F)F)c1 [Example 11, [4-(difluoromethoxy)-3-(3-methylsulfonylphenyl)phenyl] N-cyclohexylcarbamate] | 2.9 | 6.5 | 12 (≈ 5.27 µg/mL) |  |  | 
10 | NC(=O)c1cccc(-c2cc(F)cc(OC(=O)NC3CCCCC3)c2)c1 [Example 12, [3-(3-Carbamoylphenyl)-5-fluoro-phenyl] N-cyclohexylcarbamate] | 0.23 | 0.87 |  |  |  | 
11 | NC(=O)c1cccc(-c2cccc(OC(=O)NC3CCCCC3)c2F)c1 [Example 13, [3-(3-Carbamoylphenyl)-2-Fluoro-Phenyl] N-Cyclohexylcarbamate] | 1.9 | 0.89 |  |  |  | 
12 | CNC(=O)c1cccc(-c2cccc(OC(=O)NC3CCCCC3)c2)c1 [[drawing 127] comparison compound, reference compound] |  |  | 18 (≈ 6.34 µg/mL) | 30 | 1520 | 1500
13 | NS(=O)(=O)c1cccc(-c2cccc(OC(=O)NC3CCCCC3)c2)c1 [[drawing 129] comparison compound, reference compound] |  |  | 7 (≈ 2.62 µg/mL) | 21 | 725 | 502
14 | NC(=O)c1cccc(-c2cccc(OC(=O)NC3CCC3)c2)c1 [[drawing 131] comparison compound, reference compound] |  |  | 6 (≈ 1.86 µg/mL) | 39 | 891 | 1160
15 | NC(=O)c1cccc(-c2cccc(OC(=O)NC3CCCCC3)c2)c1 [[drawing 135] comparison compound, reference compound] |  |  | 1 (≈ 0.338 µg/mL) | 5 | 2560 | 446

Source: US9822068B2, “Inhibitors of fatty acid amide hydrolase (FAAH) enzyme with improved oral bioavailability and their use as medicaments” (THE REGENTS OF THE UNIVERSITY OF CALIFORNIA, priority 2014, dated 2017)
